Changes are numbered by the printed parent chain. pIC50: −log10 of the molar value. Like-named read-outs stand apart in the source and are kept apart here.
Legend:
[1] = target: T1, recombinant human GBA (rGBA, imiglucerase) (Homo sapiens, UniProt P04062, R534H); assay: residual activity, fluorogenic 4MU-glucoside assay; format: biochemical; settings: covalent, irreversible, 180 min preincubation, pH 5.2, 37 °C, 0.2% taurocholate, 0.1% Triton X-100, 3.75 mM 4MU-beta-D-glucopyranoside
T1 construct: gene GBA1; imiglucerase (Sanofi Genzyme), mature secreted enzyme
T1 sequence (P04062 40-536 R534H): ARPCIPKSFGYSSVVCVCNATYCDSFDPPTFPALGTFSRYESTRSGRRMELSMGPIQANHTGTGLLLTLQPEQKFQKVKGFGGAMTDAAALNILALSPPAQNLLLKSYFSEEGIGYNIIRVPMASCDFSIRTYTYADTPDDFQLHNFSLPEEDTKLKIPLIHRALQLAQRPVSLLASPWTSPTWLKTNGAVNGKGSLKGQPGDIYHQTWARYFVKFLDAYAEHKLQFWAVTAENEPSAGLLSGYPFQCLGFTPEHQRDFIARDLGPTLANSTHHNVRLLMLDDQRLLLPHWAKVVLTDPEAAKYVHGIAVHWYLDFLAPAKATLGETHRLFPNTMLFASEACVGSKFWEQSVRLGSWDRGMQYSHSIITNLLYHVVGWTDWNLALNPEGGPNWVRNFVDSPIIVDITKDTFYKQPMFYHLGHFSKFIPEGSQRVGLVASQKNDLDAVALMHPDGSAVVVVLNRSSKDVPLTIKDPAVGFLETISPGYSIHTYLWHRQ
Excerpt: residual activity, fluorogenic 4MU-glucoside assay on recombinant human GBA (rGBA, imiglucerase)

[2] = target: T2, GAA (zebrafish larvae) (Danio rerio, UniProt A0A8M1QKP5); assay: live larvae exposed, residual activity in lysate with 4MU-alpha-D-glucopyranoside; settings: in vivo: concentration in egg water, 5 days at 28.5 °C, assay pH 4.0
T2 construct: endogenous enzyme in larvae, measured in larval lysate; paralogues not distinguished
T2 sequence (A0A8M1QKP5 31-918): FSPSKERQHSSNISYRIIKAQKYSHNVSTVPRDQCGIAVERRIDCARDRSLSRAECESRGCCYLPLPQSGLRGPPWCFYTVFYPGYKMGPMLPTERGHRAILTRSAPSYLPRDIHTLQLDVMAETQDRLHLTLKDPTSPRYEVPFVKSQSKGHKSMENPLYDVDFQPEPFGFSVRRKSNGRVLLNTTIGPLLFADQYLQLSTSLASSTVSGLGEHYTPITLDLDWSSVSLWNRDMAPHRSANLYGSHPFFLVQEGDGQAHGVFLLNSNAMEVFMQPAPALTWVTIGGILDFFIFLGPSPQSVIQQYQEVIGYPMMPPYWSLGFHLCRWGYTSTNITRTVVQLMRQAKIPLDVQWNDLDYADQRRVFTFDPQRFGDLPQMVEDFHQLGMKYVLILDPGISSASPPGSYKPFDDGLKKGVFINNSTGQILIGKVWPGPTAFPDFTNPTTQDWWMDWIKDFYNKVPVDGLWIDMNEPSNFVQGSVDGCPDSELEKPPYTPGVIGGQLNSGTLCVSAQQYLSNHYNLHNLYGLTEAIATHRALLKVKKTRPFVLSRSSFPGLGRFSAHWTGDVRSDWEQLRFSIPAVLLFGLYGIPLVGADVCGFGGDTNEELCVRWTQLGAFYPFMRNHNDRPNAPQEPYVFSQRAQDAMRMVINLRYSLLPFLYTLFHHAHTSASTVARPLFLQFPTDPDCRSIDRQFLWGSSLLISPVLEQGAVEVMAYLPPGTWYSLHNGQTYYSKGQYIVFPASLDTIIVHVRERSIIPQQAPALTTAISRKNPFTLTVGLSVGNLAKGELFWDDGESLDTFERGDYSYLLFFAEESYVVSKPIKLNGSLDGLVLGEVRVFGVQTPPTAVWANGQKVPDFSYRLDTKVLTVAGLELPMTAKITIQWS
Excerpt: live larvae exposed, residual activity in lysate with 4MU-alpha-D-glucopyranoside on GAA (zebrafish larvae)

[3] = target: T3, GBA (HEK293T cells) (Homo sapiens, UniProt P04062); assay: intact cells treated, residual activity in lysate with 4MU-glucoside; format: cell-based; settings: covalent, 24 h treatment of intact HEK293T cells, assay pH 5.2 with 25 nM AMP-DNM to block GBA2
T3 construct: gene GBA1; endogenous lysosomal enzyme in HEK293T cells that stably express human GBA2; 58-66 kDa on gel
T3 sequence (P04062 40-536): T1 sequence (P04062 40-536 R534H) with H495R
Excerpt: intact cells treated, residual activity in lysate with 4MU-glucoside on GBA (HEK293T cells)

[4] = target: T4, GBA (zebrafish larvae) (Danio rerio, UniProt E7EZM1); assay: live larvae exposed, residual activity in lysate with 4MU-glucoside; settings: covalent, in vivo: concentration in egg water, 5 days at 28.5 °C, assay pH 5.2 with AMP-DNM
T4 construct: gene gba1; endogenous enzyme in larvae, measured in larval lysate
T4 sequence (E7EZM1 20-518): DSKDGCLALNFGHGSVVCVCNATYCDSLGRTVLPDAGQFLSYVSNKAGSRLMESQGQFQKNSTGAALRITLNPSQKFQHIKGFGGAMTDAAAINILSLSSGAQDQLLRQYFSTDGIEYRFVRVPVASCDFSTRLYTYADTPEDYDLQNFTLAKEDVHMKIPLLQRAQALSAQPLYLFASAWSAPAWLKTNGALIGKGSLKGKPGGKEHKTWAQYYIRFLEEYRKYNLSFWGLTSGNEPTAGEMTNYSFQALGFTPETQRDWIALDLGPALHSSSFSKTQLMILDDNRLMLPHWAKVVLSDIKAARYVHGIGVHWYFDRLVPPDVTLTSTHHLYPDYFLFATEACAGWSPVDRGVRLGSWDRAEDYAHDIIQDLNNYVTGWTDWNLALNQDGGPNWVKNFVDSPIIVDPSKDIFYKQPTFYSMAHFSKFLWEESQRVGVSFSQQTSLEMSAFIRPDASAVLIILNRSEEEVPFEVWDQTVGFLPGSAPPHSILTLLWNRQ
Excerpt: live larvae exposed, residual activity in lysate with 4MU-glucoside on GBA (zebrafish larvae)

SMILES	pIC50 ([1]; read-out: CBE / Enz. assay)	pIC50 ([2]; covalent, read-out: CBE / Enz. assay)	pIC50 ([3]; read-out: CBE / Enz. assay)	pIC50 ([4]; read-out: CBE / Enz. assay)	pIC50 ([1]; read-out: CP / Enz. assay)	pIC50 ([2]; read-out: CP / Enz. assay)	pIC50 ([3]; read-out: CP / Enz. assay)	pIC50 ([4]; read-out: CP / Enz. assay)
OC1C(O)C(O)C2OC2C1O (centres unmarked) [compound 1, conduritol B epoxide]	5.37	2.30	6.48	4.23				
OC[C@@H]1[C@@H](O)[C@H](O)[C@@H](O)[C@@H]2O[C@H]12 [compound 2, cyclophellitol]					7.52	< 4.00	7.07	6.89
